Experimental findings from US9546164B2 (GENENTECH, INC., priority 2013, dated 2017) are described below.

The target in one assay is NaV1.7 (Homo sapiens (Human), UniProt Q15858). Nature of the assay: Patch voltage clamp electrophysiological assay (EP), NaV1.7. The assay is classed as cell-based. As to conditions: HEK-293 cells stably expressing human NaV1.7 with β1 subunit, whole-cell patch clamp, holding −60 mV. As to the method: Electrophysiological Assay (EP) (In vitro Assay)
Control sodium currents were measured in 0.5% DMSO.
Series resistance compensation was applied (60-80%).
For orientation: The patch-clamp technique gives a direct electrical read-out from membranes.

The target of the next assay is hNav1.7 (Homo sapiens (Human), UniProt Q15858). As to the kind of experiment: Tritiated sulfonamide competitive binding to membranes from cells expressing hNav1.7 and the β1 subunit.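 Further: Filter-bound radioactivity counted by liquid scintillation, nonspecific binding defined with excess unlabelled ligand, IC50 fitted to percent inhibition of specific binding.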
Sequence of hNav1.7 (Q15858 other isoform, or with tags, fused parts or gaps): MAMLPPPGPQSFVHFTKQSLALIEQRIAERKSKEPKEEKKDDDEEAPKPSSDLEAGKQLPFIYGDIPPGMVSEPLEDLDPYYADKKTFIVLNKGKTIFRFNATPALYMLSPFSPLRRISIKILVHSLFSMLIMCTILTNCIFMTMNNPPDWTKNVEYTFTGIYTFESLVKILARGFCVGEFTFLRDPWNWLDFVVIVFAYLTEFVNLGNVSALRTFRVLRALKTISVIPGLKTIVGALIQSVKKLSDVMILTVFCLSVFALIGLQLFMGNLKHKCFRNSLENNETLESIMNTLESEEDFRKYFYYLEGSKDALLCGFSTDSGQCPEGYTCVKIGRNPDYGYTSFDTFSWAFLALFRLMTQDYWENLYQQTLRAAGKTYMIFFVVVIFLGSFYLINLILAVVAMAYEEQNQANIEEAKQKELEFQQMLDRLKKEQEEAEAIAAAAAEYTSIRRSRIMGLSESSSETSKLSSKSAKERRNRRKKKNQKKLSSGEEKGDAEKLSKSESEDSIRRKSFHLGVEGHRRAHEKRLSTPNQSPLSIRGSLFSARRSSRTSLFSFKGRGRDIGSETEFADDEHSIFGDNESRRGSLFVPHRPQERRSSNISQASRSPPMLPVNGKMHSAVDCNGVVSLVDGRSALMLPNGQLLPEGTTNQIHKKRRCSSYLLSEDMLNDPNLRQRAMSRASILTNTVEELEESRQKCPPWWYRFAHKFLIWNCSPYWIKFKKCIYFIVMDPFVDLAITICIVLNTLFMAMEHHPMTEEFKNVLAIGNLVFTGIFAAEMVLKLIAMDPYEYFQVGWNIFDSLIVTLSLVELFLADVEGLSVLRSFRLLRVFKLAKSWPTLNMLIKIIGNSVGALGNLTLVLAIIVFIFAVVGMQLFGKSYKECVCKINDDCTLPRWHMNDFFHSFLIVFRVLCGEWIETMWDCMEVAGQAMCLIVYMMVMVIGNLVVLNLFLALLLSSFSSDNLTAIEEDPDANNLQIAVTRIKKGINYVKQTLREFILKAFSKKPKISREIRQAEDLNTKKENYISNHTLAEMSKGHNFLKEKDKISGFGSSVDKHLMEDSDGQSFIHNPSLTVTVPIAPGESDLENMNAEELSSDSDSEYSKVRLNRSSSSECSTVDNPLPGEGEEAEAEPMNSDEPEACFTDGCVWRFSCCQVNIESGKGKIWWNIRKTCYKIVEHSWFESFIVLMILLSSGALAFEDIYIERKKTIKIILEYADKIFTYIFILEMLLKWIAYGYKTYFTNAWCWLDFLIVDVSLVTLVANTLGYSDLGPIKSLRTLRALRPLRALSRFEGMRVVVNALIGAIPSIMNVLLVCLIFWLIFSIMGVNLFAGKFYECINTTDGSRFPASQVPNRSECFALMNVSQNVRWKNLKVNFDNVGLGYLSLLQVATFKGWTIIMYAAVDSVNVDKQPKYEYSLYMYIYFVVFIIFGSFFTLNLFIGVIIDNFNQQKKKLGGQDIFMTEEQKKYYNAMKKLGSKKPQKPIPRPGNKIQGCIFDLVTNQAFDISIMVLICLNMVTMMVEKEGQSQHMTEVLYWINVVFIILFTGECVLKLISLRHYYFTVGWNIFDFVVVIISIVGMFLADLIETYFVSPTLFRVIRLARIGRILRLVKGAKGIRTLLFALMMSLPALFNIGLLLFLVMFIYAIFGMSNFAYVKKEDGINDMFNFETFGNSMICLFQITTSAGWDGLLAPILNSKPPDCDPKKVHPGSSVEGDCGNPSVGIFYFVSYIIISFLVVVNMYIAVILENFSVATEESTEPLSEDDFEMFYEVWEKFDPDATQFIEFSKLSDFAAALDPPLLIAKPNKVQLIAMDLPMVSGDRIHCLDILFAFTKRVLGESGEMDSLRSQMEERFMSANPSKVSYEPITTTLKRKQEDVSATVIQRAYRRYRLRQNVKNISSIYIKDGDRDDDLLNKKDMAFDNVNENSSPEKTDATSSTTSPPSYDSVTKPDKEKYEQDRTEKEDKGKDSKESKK
Sequence of hNav1.7 (Q07699 19-218 partner): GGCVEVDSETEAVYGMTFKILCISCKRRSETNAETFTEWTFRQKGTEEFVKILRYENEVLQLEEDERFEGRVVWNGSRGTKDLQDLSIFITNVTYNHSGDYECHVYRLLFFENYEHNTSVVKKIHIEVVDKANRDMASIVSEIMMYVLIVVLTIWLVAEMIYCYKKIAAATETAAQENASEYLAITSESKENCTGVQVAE
For another assay, the target named is NaV1.5 (Homo sapiens (Human), UniProt Q14524). As to the kind of experiment: Patch voltage clamp electrophysiological assay (EP), NaV1.5.
Sequence of NaV1.5 (Q14524 whole entry): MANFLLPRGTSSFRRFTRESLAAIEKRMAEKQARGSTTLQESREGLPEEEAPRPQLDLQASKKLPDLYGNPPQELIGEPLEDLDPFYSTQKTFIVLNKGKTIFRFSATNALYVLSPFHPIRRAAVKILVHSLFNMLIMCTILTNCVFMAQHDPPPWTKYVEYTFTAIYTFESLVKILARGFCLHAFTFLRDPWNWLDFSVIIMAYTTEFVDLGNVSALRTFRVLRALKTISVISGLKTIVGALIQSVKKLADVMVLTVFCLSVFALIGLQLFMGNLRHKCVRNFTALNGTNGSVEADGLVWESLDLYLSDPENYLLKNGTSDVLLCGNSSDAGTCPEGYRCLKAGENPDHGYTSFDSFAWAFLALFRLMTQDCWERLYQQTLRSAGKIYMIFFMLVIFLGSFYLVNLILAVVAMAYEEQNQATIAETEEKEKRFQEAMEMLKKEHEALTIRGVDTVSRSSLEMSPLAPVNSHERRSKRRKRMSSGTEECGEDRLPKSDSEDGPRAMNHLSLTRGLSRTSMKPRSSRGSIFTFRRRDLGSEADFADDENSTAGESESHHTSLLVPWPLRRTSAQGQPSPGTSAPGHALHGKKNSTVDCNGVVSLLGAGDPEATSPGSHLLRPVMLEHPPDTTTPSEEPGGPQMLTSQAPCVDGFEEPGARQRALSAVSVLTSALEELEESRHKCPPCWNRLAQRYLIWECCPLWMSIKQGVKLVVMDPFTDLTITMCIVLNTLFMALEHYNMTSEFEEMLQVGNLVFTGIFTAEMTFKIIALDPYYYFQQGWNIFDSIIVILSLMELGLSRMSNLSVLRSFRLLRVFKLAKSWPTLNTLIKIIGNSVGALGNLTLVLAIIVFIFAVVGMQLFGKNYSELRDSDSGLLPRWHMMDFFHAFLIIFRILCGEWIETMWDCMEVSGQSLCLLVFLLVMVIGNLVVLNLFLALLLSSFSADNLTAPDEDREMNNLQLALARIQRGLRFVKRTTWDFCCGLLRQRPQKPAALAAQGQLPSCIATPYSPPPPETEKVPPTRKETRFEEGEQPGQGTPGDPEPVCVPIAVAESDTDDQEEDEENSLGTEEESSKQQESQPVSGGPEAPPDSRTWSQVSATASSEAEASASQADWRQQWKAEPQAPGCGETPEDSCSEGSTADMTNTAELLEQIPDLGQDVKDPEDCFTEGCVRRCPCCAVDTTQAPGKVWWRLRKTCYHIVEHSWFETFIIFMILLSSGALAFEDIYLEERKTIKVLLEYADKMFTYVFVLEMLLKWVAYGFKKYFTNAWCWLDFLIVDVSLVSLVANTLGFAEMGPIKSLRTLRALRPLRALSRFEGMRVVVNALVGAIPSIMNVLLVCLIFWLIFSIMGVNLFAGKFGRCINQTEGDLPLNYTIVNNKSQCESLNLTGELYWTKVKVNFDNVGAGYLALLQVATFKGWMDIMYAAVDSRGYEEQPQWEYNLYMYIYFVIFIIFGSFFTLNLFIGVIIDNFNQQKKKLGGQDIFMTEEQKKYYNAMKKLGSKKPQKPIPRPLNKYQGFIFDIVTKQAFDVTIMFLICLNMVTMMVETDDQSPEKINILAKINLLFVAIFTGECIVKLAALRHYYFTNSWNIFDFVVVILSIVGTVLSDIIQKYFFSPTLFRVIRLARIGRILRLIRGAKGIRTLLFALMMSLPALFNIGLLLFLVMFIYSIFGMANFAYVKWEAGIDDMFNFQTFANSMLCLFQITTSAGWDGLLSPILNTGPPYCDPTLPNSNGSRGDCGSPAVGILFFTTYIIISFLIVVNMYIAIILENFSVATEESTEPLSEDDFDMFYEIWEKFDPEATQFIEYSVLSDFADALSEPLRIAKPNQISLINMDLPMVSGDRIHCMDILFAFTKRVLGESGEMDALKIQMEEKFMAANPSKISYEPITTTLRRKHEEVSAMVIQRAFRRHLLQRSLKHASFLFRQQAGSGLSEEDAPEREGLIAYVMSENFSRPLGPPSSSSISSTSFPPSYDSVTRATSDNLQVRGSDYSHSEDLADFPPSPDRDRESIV
The mark [1] stands for this setting: read-out: Ligand Binding Assay, 100 pM [3H]compound, membranes with hNav1.7 and β1 subunit, 18 h, room temperature.

pIC50: −log10 of the molar value. Structures can show the parent of a compound that is named as a salt. Where two headings read alike, the source gives them in different places.

Sequence of NaV1.7 (Q15858 other isoform, or with tags, fused parts or gaps): as the sequence (Q15858 other isoform, or with tags, fused parts or gaps) above
Sequence of NaV1.7 (Q07699 19-218 partner): as the sequence (Q07699 19-218 partner) above
Experimental for NaV1.5: The following patch voltage clamp electrophysiology studies were performed on representative compounds of the invention using human embryonic kidney cells (HEK), permanently transfected with an expression vector containing the full-length cDNA coding for the desired human sodium channel α-subunit, grown in culture media containing 10% FBS, 1% PSG, and 0.5 mg/mL G418 at 37° C. with 5% CO2. […] The β1 subunit was coexpressed in both the NaV1.7 and NaV1.5 cell lines.
Sodium currents were measured rising the patch clamp technique in the whole-cell configuration using either a PatchXpress automated voltage clamp or manually using an Axopatch 200B (Axon Instruments) or Model 2400 (A-M systems) amplifier. […] The pipette was filled with a solution comprised of: 5 mM NaCl, 10 mM CsCl, 120 mM CsF, 0.1 mM CaCl2, 2 mM MgCl2, 10 mM HEPES, 10 mM EGTA; and adjusted to pH 7.2 with CsOH. The external solution had the following composition: 140 mM NaCl, 5 mM KCl, 2 mM CaCl2, 1 mM MgCl2, 10 mM HEPES; and adjusted to pH 7.4 with NaOH. In some studies, the external sodium was reduced by equimolar replacement with choline. Osmolality in the CsF internal and NaCl external solutions was adjusted to 300 mOsm/kg and 310 mOsm/kg with glucose, respectively. All recordings were performed at ambient temperature in a bath chamber with a volume of 150 μL. Control sodium currents were measured in 0.5% DMSO. Controls and representative compounds of the invention were applied to the recording chamber through a 4-pinch or 8-pinch valve bath perfusion system manufactured by ALA Scientific Instruments.
Currents were recorded at 40 kHz sampling frequency, filtered at 5 Hz, and stored using a Digidata-1322A analogue/digital interface with the pClamp software (Axon instruments). Series resistance compensation was applied (60-80%). […] All statistics in this study are given as mean±SD.
The membrane potential was maintained at a voltage where reactivation of the channel is complete (which was −60 mV for both NaV1.7 and NaV1.5). The voltage is then stepped back to a very negative (Vhold=150 mV) voltage for 20 ms and then a test poise is applied to quantify the compound block. The 20 ms brief repolarization was long enough for compound-free channels to completely recover from fast inactivation, but the compound-bound channels recovered more slowly such that negligible recovery could occur during this interval. The percent decrease in sodium current following wash-on of compound was taken as the percent block of sodium channels.

For `COC[C@@H](c1cc(Cl)cc(Cl)c1)N1CCC(COc2cc(F)c(C(=O)NS(C)(=O)=O)cc2C2CC2)CC1` (single isomer, unassigned) [Example 162], the pIC50 against NaV1.7 was 8.55; at hNav1.7 (setting [1]) it was 8.41.

In the case of `O=C(NS(=O)(=O)C1CC1)c1cc(C2CC2)c(O[C@@H]2CCCN(Cc3cccc(Cl)c3)C2)cc1F` [Example 27, (R)-4-((1-(3-chlorobenzyl)piperidin-3-yl)oxy)-5-cyclopropyl-N-(cyclopropylsulfonyl)-2-fluorobenzamide], the pIC50 was 6.77 at NaV1.5 and 8.44 on hNav1.7.

In turn, `COC[C@H](c1cc(Cl)cc(Cl)c1)N1CCC(COc2cc(F)c(C(=O)NS(=O)(=O)N3CCC3)cc2C2CC2)CC1` (single isomer, unassigned) [Example 167] gave a pIC50 on NaV1.7 of 8.38.

On to `O=C(NS(=O)(=O)C1CC1)c1cc(C2CC2)c(CN2[C@@H]3CC[C@H]2C[C@@H](Oc2cc(Cl)cc(Cl)c2)C3)cc1F` [Example 475, 5-cyclopropyl-N-(cyclopropylsulfonyl)-4-(((1R,3r,5S)-3-(3,5-dichlorophenoxy)-8-azabicyclo[3.2.1]octan-8-yl)methyl)-2-fluorobenzamide hydrochloride], for which the pIC50 against NaV1.5 was 6.09.

As for `O=C(NS(=O)(=O)N1CCC1)c1cc(C2CC2)c(O[C@H]2CCCN(Cc3ccccc3)C2)cc1F` [Example 2, (S)—N-(azetidin-1-ylsulfonyl)-4-((1-benzylpiperidin-3-yl)oxy)-5-cyclopropyl-2-fluorobenzamide], the pIC50 was 5.97 against NaV1.7 and 5.39 on hNav1.7 (setting [1]).

For `CS(=O)(=O)NC(=O)c1cc(C2CC2)c(OCC2CCN(Cc3cc(F)cc(Cl)c3)CC2)cc1F` [Example 268, 4-((1-(3-Chloro-5-fluorobenzyl)piperidin-4-yl)methoxy)-5-cyclopropyl-2-fluoro-N-(methylsulfonyl)benzamide], the pIC50 is 8.55 against NaV1.7 and 8.22 at hNav1.7 (setting [1]).

In the case of `CC(C)(c1cc(Cl)cc(Cl)c1)N1CCC(COc2cc(F)c(C(=O)NS(C)(=O)=O)cc2C2CC2)CC1` [Example 209], the pIC50 at NaV1.7 was 7.80; at hNav1.7 (setting [1]), 8.77.

Turning to `COC[C@@H](c1cc(Cl)cc(Cl)c1)N1CCC(COc2cc(F)c(C(=O)NS(=O)(=O)C3CC3)cc2C2CC2)CC1` (single isomer, unassigned) [Example 164], the pIC50 was 8.48 against NaV1.7 and 8.37 at hNav1.7 (setting [1]).

Consider `COc1ccc(CN2CCC[C@@H](Oc3cc(F)c(C(=O)NS(C)(=O)=O)cc3C3CC3)C2)c(C)c1` [Example 434, trifluoroacetic acid salt], for which the pIC50 was 7.89 against NaV1.7 and 8.30 at hNav1.7 (setting [1]).

As for `CC(c1cc(Cl)cc(Cl)c1)N1CCC(COc2cc(F)c(C(=O)NS(C)(=O)=O)cc2C2CC2)CC1` (stereo not drawn) [Example 97, 5-Cyclopropyl-4-((1-(1-(3,5-dichlorophenyl)ethyl)piperidin-4-yl)methoxy)-2-fluoro-N-(methylsulfonyl)benzamide], the pIC50 on hNav1.7 (setting [1]) was 8.57.

As to `O=C(NS(=O)(=O)C1CC1)c1cc(C2CC2)c(OCC2CCN(C(c3ccccc3)c3cc(Cl)cc(Cl)c3)CC2)cc1F` (stereo not drawn) [Example 411, 5-cyclopropyl-N-(cyclopropylsulfonyl)-4-((1-((3,5-dichlorophenyl)(phenyl)methyl)piperidin-4-yl)methoxy)-2-fluorobenzamide, trifluoroacetic acid salt], the pIC50 on hNav1.7 (setting [1]) was 9.10.

Regarding `CS(=O)(=O)NC(=O)c1cc(C2CC2)c(OCC2CCN(Cc3ccc(Br)cc3F)CC2)cc1F` [Example 589, 4-((1-(4-bromo-2-fluorobenzyl)piperidin-4-yl)methoxy)-5-cyclopropyl-2-fluoro-N-(methylsulfonyl)benzamide], the pIC50 on hNav1.7 (setting [1]) was 7.96.

With `O=C(NS(=O)(=O)N1CCC1)c1cc(C2CC2)c(OCC2CCN(Cc3ccc(C4CC4)cc3Cl)CC2)cc1F` [Example 417, N-(azetidin-1-ylsulfonyl)-4-((1-(2-chloro-4-cyclopropylbenzyl)piperidin-4-yl)methoxy)-5-cyclopropyl-2-fluorobenzamide, trifluoroacetic acid salt], on hNav1.7 (setting [1]), the pIC50 is 8.24.

As for `CS(=O)(=O)NC(=O)c1cc(C2CC2)c(OCC2CCN(C(c3ccc(Cl)cc3)c3ccc(Cl)cc3)CC2)cc1F` [Example 362, 4-((1-(bis(4-chlorophenyl)methyl)piperidin-4-yl)methoxy)-5-cyclopropyl-2-fluoro-N-(methylsulfonyl)benzamide, trifluoroacetic acid salt], the pIC50 at hNav1.7 (setting [1]) is 8.54.

In the case of `CS(=O)(=O)NC(=O)c1cc(C2CC2)c(OCC2CN(C(c3ccccc3)c3ccccn3)C2)cc1F` (stereo in doubt) [Example 119, (S)-5-Cyclopropyl-2-fluoro-N-(methylsulfonyl)-4-((1-(phenyl(pyridin-2-yl)methyl)azetidin-3-yl)methoxy)benzamide], at hNav1.7 (setting [1]), the pIC50 is 6.51.

Turning to `CS(=O)(=O)NC(=O)c1cc(C2CC2)c(OCC2CN(C(c3ccccc3)c3ccc(Cl)c(Cl)c3)C2)cc1F` (stereo not drawn) [Example 80, 5-Cyclopropyl-4-((1-((3,4-dichlorophenyl)(phenyl)methyl)azetidin-3-yl)methoxy)-2-fluoro-N-(methylsulfonyl)benzamide], the pIC50 on hNav1.7 (setting [1]) was 8.39.

Consider `C[C@@H]1CC[C@@H](COc2cc(F)c(C(=O)NS(C)(=O)=O)cc2C2CC2)CN1[C@H](C)c1cc(Cl)cc(Cl)c1` [Example 343, 5-cyclopropyl-4-(((3R,6R)-1-((R)-1-(3,5-dichlorophenyl)ethyl)-6-methylpiperidin-3-yl)methoxy)-2-fluoro-N-(methylsulfonyl)benzamide, trifluoroacetic acid salt], for which the pIC50 at hNav1.7 (setting [1]) is 8.08.

As for `CCS(=O)(=O)NC(=O)c1cc(C2CC2)c(OCC2(C)CN(c3ncc(Cl)cc3F)C2)cc1F` [Example 484, 4-((1-(5-chloro-3-fluoropyridin-2-yl)-3-methylazetidin-3-yl)methoxy)-5-cyclopropyl-N-(ethylsulfonyl)-2-fluorobenzamide], the pIC50 on hNav1.7 (setting [1]) was 8.04.

On to `COCCS(=O)(=O)NC(=O)c1cc(C2CC2)c(OCC2CN(C(c3ccccc3)c3ccccc3)C2)cc1F` [Example 61, 4-((1-benzhydrylazetidin-3-yl)methoxy)-5-cyclopropyl-2-fluoro-N-((2-methoxyethyl)sulfonyl)benzamide], for which the pIC50 on hNav1.7 (setting [1]) is 7.24.

Take `CS(=O)(=O)NC(=O)c1cc(C2CC2)c(O[C@@H]2CCCN(Cc3cccc(OC(F)(F)F)c3)C2)cc1F` [Example 437, (R)-5-cyclopropyl-2-fluoro-N-(methylsulfonyl)-4-((1-(3-(trifluoromethoxy)benzyl)piperidin-3-yl)oxy)benzamide, trifluoroacetic acid salt]: the pIC50 on hNav1.7 (setting [1]) is 8.14.

As for `CS(=O)(=O)NC(=O)c1cc(C2CC2)c(OCC2CCN(CCC(F)(F)F)CC2)cc1F` [Example 117, 5-Cyclopropyl-2-fluoro-N-(methylsulfonyl)-4-((1-(3,3,3-trifluoropropyl)piperidin-4-yl)methoxy)benzamide], the pIC50 on hNav1.7 (setting [1]) was 6.39.

With `O=C(NS(=O)(=O)C1CC1)c1cc(C2CC2)c(CN2CCC(Oc3ccc(Cl)c(C(F)(F)F)c3)CC2)cc1F` [Example 520, 4-((4-(4-chloro-3-(trifluoromethyl)phenoxy)piperidin-1-yl)methyl)-5-cyclopropyl-N-(cyclopropylsulfonyl)-2-fluorobenzamide, trifluoroacetic acid salt], the pIC50 at hNav1.7 is 8.14.

On hNav1.7, `O=C(NS(=O)(=O)C1CC1)c1cc(C2CC2)c(O[C@@H]2CCCN(Cc3ccc(F)cc3C(F)(F)F)C2)cc1F` [Example 35] showed a pIC50 of 8.62.
